Laboratory results published in publication PMC7413254 (Nature Communications, 2020).

Assays:
Type in all cases: cell-based
PfCRT^Dd2 [1] = target: T1, PfCRT^Dd2 (Plasmodium falciparum, UniProt Q9N623, A220S/I356T/K76T/M74I/N326S/N75E/Q271E/R371I); assay: cell-based; details: for PfCRT-mediated [3H]CQ transport, trans-stimulation (% PfCRTDd2 control): PfCRTDd2 oocytes, normalised to oocyte type control; for [3H]CQ transport (% PfCRTDd2 control), trans-stimulation, PfCRTDd2: PfCRT-mediated component (background subtracted), mean ± SEM, SEM
Method in brief: (§1)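 Transport measured in Xenopus oocytes expressing the transporters, 1.5 h at 27.5 °C in ND96 pH 5.5 unless noted. For trans-stimulation, VF-6 injected in 25 nL ND96 at pH 5.0–7.0 or Na^+-free (choline) buffer; intracellular levels based on ~400 nL oocyte volume. Ten oocytes per treatment, ≥4 experiments.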

PfCRT^3D7 = PfCRT^3D7 (Plasmodium falciparum, UniProt Q8IBZ9); assay: cell-based; details: for PfCRT-mediated [3H]CQ transport, trans-stimulation (% PfCRT3D7 control): PfCRT3D7 oocytes, normalised to oocyte type control
Method in brief: as §1

PfCRT^Ecu1110 [2] = target: T2, PfCRT^Ecu1110 (Plasmodium falciparum, UniProt Q9N623, A220S/I356L/K76T/N326D); assay: cell-based; details: for PfCRT-mediated [3H]CQ transport, trans-stimulation (% PfCRTEcu1110 control): PfCRTEcu1110 oocytes, normalised to oocyte type control; for [3H]CQ transport (% PfCRTDd2 control), trans-stimulation, PfCRTEcu1110: PfCRT-mediated component (background subtracted), sheet title says normalised to PfCRTDd2 control, mean ± SEM, SEM
Method in brief: as §1

PfCRT^Dd2 [3] = target: T1, PfCRT^Dd2; assay: [3H]CQ uptake into Xenopus oocytes, cis-inhibition by unlabelled solute; details: PfCRTDd2 oocytes, background [3H]CQ accumulation subtracted, normalised to oocyte type control
Method in brief: (§2)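 Radioactivity accumulated per oocyte, read by liquid scintillation after 10% SDS lysis, served as the uptake measure. Incubations ran 1.5 h at 27.5 °C in ND96 at pH 5.5, matching digestive-vacuole acidity.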

PfCRT^Ecu1110 [4] = target: T2, PfCRT^Ecu1110; assay: as above; details: for PfCRT-mediated [3H]CQ transport, cis-inhibition (% PfCRTEcu1110 control): PfCRTEcu1110 oocytes, background [3H]CQ accumulation subtracted, normalised to oocyte type control; for [3H]CQ transport (% PfCRTEcu1110 control), cis-inhibition, PfCRTEcu1110: PfCRT-mediated component (background subtracted), sheet title says normalised to PfCRTDd2 control, mean ± SEM, SEM
Method in brief: as §2

[5] = [test solute]i = 5 mM (intracellular)
[6] = [test solute]i = 45 mM (intracellular; 30 mM for some solutes due to solubility)
[7] = [test solute]i = 5 mM (injected)
[8] = [test solute]i = 45 mM (30 mM for some solutes due to solubility)

T2 sequence (Q9N623 whole entry A220S/I356L/K76T/N326D): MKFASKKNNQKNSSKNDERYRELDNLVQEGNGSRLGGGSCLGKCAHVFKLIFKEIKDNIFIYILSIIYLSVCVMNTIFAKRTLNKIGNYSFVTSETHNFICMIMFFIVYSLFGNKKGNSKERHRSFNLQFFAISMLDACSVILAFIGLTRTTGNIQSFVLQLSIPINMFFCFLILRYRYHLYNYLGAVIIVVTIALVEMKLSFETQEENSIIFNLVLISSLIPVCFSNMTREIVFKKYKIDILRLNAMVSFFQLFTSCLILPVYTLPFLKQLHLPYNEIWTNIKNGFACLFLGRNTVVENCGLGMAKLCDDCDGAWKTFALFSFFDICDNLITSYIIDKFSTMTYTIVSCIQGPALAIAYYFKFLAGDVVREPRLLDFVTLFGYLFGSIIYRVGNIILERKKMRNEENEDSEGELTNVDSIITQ
T1 sequence (Q9N623 whole entry A220S/I356T/K76T/M74I/N326S/N75E/Q271E/R371I): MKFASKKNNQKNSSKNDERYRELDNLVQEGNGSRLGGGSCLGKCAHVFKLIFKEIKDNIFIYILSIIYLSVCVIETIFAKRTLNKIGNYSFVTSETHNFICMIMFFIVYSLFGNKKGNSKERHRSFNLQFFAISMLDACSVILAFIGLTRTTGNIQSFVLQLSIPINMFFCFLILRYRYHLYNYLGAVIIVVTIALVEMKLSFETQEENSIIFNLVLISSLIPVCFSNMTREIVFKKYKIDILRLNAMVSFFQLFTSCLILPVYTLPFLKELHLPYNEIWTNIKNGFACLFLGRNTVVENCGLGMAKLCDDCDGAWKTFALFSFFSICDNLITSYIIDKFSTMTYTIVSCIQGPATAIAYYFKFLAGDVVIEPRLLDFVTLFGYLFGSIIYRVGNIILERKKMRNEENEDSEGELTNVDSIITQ
Chain of PfCRT^3D7 (Q8IBZ9 59-398): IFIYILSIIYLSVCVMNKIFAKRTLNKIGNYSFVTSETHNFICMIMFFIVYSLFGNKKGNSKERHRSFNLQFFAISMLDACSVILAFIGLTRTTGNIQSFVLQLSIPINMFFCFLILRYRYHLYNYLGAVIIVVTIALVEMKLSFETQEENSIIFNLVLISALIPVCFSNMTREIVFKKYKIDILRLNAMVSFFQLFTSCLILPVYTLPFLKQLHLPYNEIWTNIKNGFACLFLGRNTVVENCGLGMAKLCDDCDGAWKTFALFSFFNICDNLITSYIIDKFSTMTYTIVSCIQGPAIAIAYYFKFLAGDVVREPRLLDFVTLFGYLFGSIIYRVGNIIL

Substance	PfCRT-mediated [3H]CQ transport, trans-stimulation (% PfCRTDd2 control) (PfCRT^Dd2 [1]; [5])	PfCRT-mediated [3H]CQ transport, trans-stimulation (% PfCRTDd2 control) (PfCRT^Dd2 [1]; [6])	PfCRT-mediated [3H]CQ transport, trans-stimulation (% PfCRT3D7 control) (PfCRT^3D7; [5])	PfCRT-mediated [3H]CQ transport, trans-stimulation (% PfCRT3D7 control) (PfCRT^3D7; [6])	PfCRT-mediated [3H]CQ transport, trans-stimulation (% PfCRTEcu1110 control) (PfCRT^Ecu1110 [2]; [5])	PfCRT-mediated [3H]CQ transport, trans-stimulation (% PfCRTEcu1110 control) (PfCRT^Ecu1110 [2]; [6])	PfCRT-mediated [3H]CQ transport, cis-inhibition (% PfCRTDd2 control) (PfCRT^Dd2 [3]; [test solute] = 0.5 mM)	PfCRT-mediated [3H]CQ transport, cis-inhibition (% PfCRTDd2 control) (PfCRT^Dd2 [3]; [test solute] = 1 mM)	PfCRT-mediated [3H]CQ transport, cis-inhibition (% PfCRTDd2 control) (PfCRT^Dd2 [3]; [test solute] = 2 mM)	PfCRT-mediated [3H]CQ transport, cis-inhibition (% PfCRTEcu1110 control) (PfCRT^Ecu1110 [4]; [test solute] = 0.5 mM)	PfCRT-mediated [3H]CQ transport, cis-inhibition (% PfCRTEcu1110 control) (PfCRT^Ecu1110 [4]; [test solute] = 1 mM)	PfCRT-mediated [3H]CQ transport, cis-inhibition (% PfCRTEcu1110 control) (PfCRT^Ecu1110 [4]; [test solute] = 2 mM)	[3H]CQ transport (% PfCRTDd2 control), trans-stimulation, PfCRTDd2 (PfCRT^Dd2 [1]; [7])	[3H]CQ transport (% PfCRTDd2 control), trans-stimulation, PfCRTDd2 (PfCRT^Dd2 [1]; [8])	[3H]CQ transport (% PfCRT3D7 control), trans-stimulation, PfCRT3D7 (PfCRT^3D7; SEM)	[3H]CQ transport (% PfCRTDd2 control), trans-stimulation, PfCRTEcu1110 (PfCRT^Ecu1110 [2]; [7])	[3H]CQ transport (% PfCRTDd2 control), trans-stimulation, PfCRTEcu1110 (PfCRT^Ecu1110 [2]; [8])	[3H]CQ transport (% PfCRTEcu1110 control), cis-inhibition, PfCRTEcu1110 (PfCRT^Ecu1110 [4]; [test solute] = 0.5 mM)	[3H]CQ transport (% PfCRTEcu1110 control), cis-inhibition, PfCRTEcu1110 (PfCRT^Ecu1110 [4]; [test solute] = 1 mM)	[3H]CQ transport (% PfCRTEcu1110 control), cis-inhibition, PfCRTEcu1110 (PfCRT^Ecu1110 [4]; [test solute] = 2 mM)
LHVDPENF [LF-8]	99 ± 3.1 % PfCRTDd2 control	98 ± 2.3 % PfCRTDd2 control	97 ± 2.2 % PfCRT3D7 control	98 ± 4.2 % PfCRT3D7 control	96 ± 2.1 % PfCRTEcu1110 control	95 ± 3.2 % PfCRTEcu1110 control	37 ± 2.0 % PfCRTDd2 control	21 ± 0.5 % PfCRTDd2 control	11 ± 0.2 % PfCRTDd2 control	31 ± 1.1 % PfCRTEcu1110 control	22 ± 2.0 % PfCRTEcu1110 control	11 ± 0.1 % PfCRTEcu1110 control								
LSDLHAHK [LK-8]	98 ± 3.3 % PfCRTDd2 control	97 ± 3.1 % PfCRTDd2 control	98 ± 3.4 % PfCRT3D7 control	96 ± 1.3 % PfCRT3D7 control	97 ± 1.4 % PfCRTEcu1110 control	98 ± 3.4 % PfCRTEcu1110 control	55 ± 2.3 % PfCRTDd2 control	51 ± 0.1 % PfCRTDd2 control	25 ± 0.3 % PfCRTDd2 control	62 ± 3.1 % PfCRTEcu1110 control	48 ± 2.2 % PfCRTEcu1110 control	39 ± 2.4 % PfCRTEcu1110 control								
LSFPTTK [LK-7]	98 ± 4.3 % PfCRTDd2 control	95 ± 3.3 % PfCRTDd2 control	93 ± 3.2 % PfCRT3D7 control	94 ± 3.6 % PfCRT3D7 control	97 ± 3.3 % PfCRTEcu1110 control	93 ± 3.7 % PfCRTEcu1110 control	48 ± 2.6 % PfCRTDd2 control	37 ± 1.7 % PfCRTDd2 control	18 ± 0.7 % PfCRTDd2 control	47 ± 1.1 % PfCRTEcu1110 control	33 ± 2.4 % PfCRTEcu1110 control	17 ± 0.4 % PfCRTEcu1110 control	98 ± 4.3 % PfCRTDd2 control	95 ± 3.3 % PfCRTDd2 control	0.1 ± 0.01	29 ± 1.6 % PfCRTEcu1110 control	29 ± 1.8 % PfCRTEcu1110 control	15 ± 0.1 % PfCRTEcu1110 control	10 ± 0.4 % PfCRTEcu1110 control	5.0 ± 0.05 % PfCRTEcu1110 control
PHFDLS [PS-6]	96 ± 4.7 % PfCRTDd2 control	95 ± 4.6 % PfCRTDd2 control	140 ± 4.3 % PfCRT3D7 control	188 ± 4.5 % PfCRT3D7 control	121 ± 4.5 % PfCRTEcu1110 control	138 ± 4.6 % PfCRTEcu1110 control	46 ± 1.0 % PfCRTDd2 control	32 ± 1.1 % PfCRTDd2 control	17 ± 0.3 % PfCRTDd2 control	41 ± 2.5 % PfCRTEcu1110 control	33 ± 1.7 % PfCRTEcu1110 control	21 ± 1.6 % PfCRTEcu1110 control	96 ± 4.7 % PfCRTDd2 control	95 ± 4.6 % PfCRTDd2 control		37 ± 1.4 % PfCRTEcu1110 control	43 ± 1.3 % PfCRTEcu1110 control			7.0 ± 0.01 % PfCRTEcu1110 control
PNALS [PS-5, host-derived peptide upstream of PL-4]	99 ± 4.6 % PfCRTDd2 control	96 ± 4.1 % PfCRTDd2 control	131 ± 6.2 % PfCRT3D7 control	180 ± 3.6 % PfCRT3D7 control	127 ± 2.6 % PfCRTEcu1110 control	136 ± 4.6 % PfCRTEcu1110 control		30 ± 2.7 % PfCRTDd2 control	19 ± 0.3 % PfCRTDd2 control	50 ± 2.5 % PfCRTEcu1110 control	42 ± 1.8 % PfCRTEcu1110 control	29 ± 1.1 % PfCRTEcu1110 control	99 ± 4.6 % PfCRTDd2 control	96 ± 4.1 % PfCRTDd2 control		38 ± 1.5 % PfCRTEcu1110 control	41 ± 2.2 % PfCRTEcu1110 control		13 ± 0.1 % PfCRTEcu1110 control	9.0 ± 0.01 % PfCRTEcu1110 control
